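A five-concentration, 48-hour dose response in 96-well plates underlies each endpoint, interpolated linearly between surrounding concentrations. TGI is the concentration that stops growth completely.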
How the values were obtained:
Test in all cases: DTP human tumour cell line panel, 48 h
HCC-2998 colon = test system: HCC-2998 colon
PC-3 prostate = test system: PC-3 prostate
SR leukemia = test system: SR leukemia
SK-MEL-5 melanoma = test system: SK-MEL-5 melanoma
MDA-MB-231 breast = test system: MDA-MB-231 breast
SNB-19 CNS = test system: SNB-19 CNS
BT-549 breast = test system: BT-549 breast
HL-60(TB) leukemia = test system: HL-60(TB) leukemia
RPMI-8226 leukemia = test system: RPMI-8226 leukemia
NCI/ADR-RES ovarian = test system: NCI/ADR-RES ovarian
SW-620 colon = test system: SW-620 colon
HOP-62 NSCLC = test system: HOP-62 NSCLC
MDA-N = test system: MDA-N
OVCAR-4 ovarian = test system: OVCAR-4 ovarian
RXF 393 renal = test system: RXF 393 renal
TK-10 renal = test system: TK-10 renal
SK-MEL-28 melanoma = test system: SK-MEL-28 melanoma
HT29 colon = test system: HT29 colon
HS 578T breast = test system: HS 578T breast
EKVX NSCLC = test system: EKVX NSCLC
K-562 leukemia = test system: K-562 leukemia
A549 NSCLC = test system: A549 NSCLC
NCI-H460 lung = test system: NCI-H460 lung
U251 CNS = test system: U251 CNS
T-47D breast = test system: T-47D breast
M14 melanoma = test system: M14 melanoma
KM12 colon = test system: KM12 colon
ACHN renal = test system: ACHN renal
786-0 renal = test system: 786-0 renal
DU-145 prostate = test system: DU-145 prostate
OVCAR-5 ovarian = test system: OVCAR-5 ovarian
HOP-92 NSCLC = test system: HOP-92 NSCLC
CAKI-1 renal = test system: CAKI-1 renal
NCI-H522 lung = test system: NCI-H522 lung
COLO 205 colon = test system: COLO 205 colon
LOX IMVI melanoma = test system: LOX IMVI melanoma
SK-OV-3 ovarian = test system: SK-OV-3 ovarian
HCT-116 colon = test system: HCT-116 colon
SF-268 CNS = test system: SF-268 CNS
SF-295 CNS = test system: SF-295 CNS
OVCAR-3 ovarian = test system: OVCAR-3 ovarian
NCI-H226 lung = test system: NCI-H226 lung
OVCAR-8 ovarian = test system: OVCAR-8 ovarian
A498 renal = test system: A498 renal
UACC-257 melanoma = test system: UACC-257 melanoma
HCT-15 colon = test system: HCT-15 colon
NCI-H23 lung = test system: NCI-H23 lung
MDA-MB-435 = test system: MDA-MB-435
UACC-62 melanoma = test system: UACC-62 melanoma
IGROV1 ovarian = test system: IGROV1 ovarian
MOLT-4 leukemia = test system: MOLT-4 leukemia
SNB-75 CNS = test system: SNB-75 CNS
SN12C renal = test system: SN12C renal
SF-539 CNS = test system: SF-539 CNS
SK-MEL-2 melanoma = test system: SK-MEL-2 melanoma
CCRF-CEM leukemia = test system: CCRF-CEM leukemia
UO-31 renal = test system: UO-31 renal
MCF7 breast = test system: MCF7 breast

Measured: TGI

CC(=O)N(C)C(C(=O)N1CC(C)CC1C(=O)N(C)C1C(=O)NC(CC(C)C)C(=O)N2CC(C)CC2C(=O)NC(CC(C)C)C(=O)N(C)C(C(C)C)C(=O)N2CCCC2C(=O)N(C)C(CC(C)C)C(=O)NCC(=O)OC1C)C(C)C (stereo not drawn)
> 100 µM: all assays above
